Measured values published in patent US20250074901A1, “NOVEL HETEROARYL COMPOUNDS” (ICAGEN, LLC, priority 2021, published 2025).

Target: T1, Kv7.2 (Homo sapiens, UniProt O43526)
T1 construct: expressed in transfected cells
Assay: Activation of Kv7.2 (in vitro assay, concentration response curve)
Assay type: cell-based
Conditions: for Emax: Kv7.2 activation max %; for EC50: activation of Kv7.2
How it was run: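 Agonist activity was measured in vitro across a range of compound concentrations and plotted as a sigmoidal concentration–response curve. EC50 is the concentration giving 50% of that compound's own maximal response (Emax).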

Structure (SMILES) | Emax | EC50
O=C(NCc1ccnc(Br)c1)N[C@H]1C[C@@H]2CC[C@H]1C2 (racemic) [Example 27, 1-[(2-bromopyridin-4-yl)methyl]-3-[rac-(1R,2R,4S)-2-bicyclo[2.2.1]heptanyl]urea] | 76% | 2690 nM
O=C(NCc1ccnc(OC(F)F)c1)Nc1cccc(CF)c1 [Example 132, 1-[[2-(difluoromethoxy)pyridin-4-yl]methyl]-3-[3-(fluoromethyl)phenyl]urea] | 43% | 1070 nM
O=C(NCc1ccnc(-n2cccn2)c1)Nc1cccc(Cl)c1 [Example 4, 1-(3-chlorophenyl)-3-[(2-pyrazol-1-ylpyridin-4-yl)methyl]urea] | 60% | 430 nM
C#CC1CC(NC(=O)NCc2ccnc(OC(F)F)c2)C1 (stereo not drawn) [Example 66, 1-[[2-(difluoromethoxy)pyridin-4-yl]methyl]-3-(3-ethynylcyclobutyl) urea] | 56% | 530 nM
O=C(NCc1ccnc(OCC(F)F)c1)N[C@H]1C[C@H](C(F)(F)F)C1 [Example 56, 1-[[2-(2,2-difluoroethoxy)pyridin-4-yl]methyl]-3-[(1r,3r)-3-(trifluoromethyl)cyclobutyl]urea] | 56% | 340 nM
O=C(NCc1ccnc(OC(F)F)c1)Nc1cccc(Cl)c1 [Example 22, 1-(3-chlorophenyl)-3-[[2-(difluoromethoxy)pyridin-4-yl]methyl]urea] | 41% | 30 nM
CC(F)COc1cc(CNC(=O)NC23CCC(F)(CC2)CC3)ccn1 (stereo not drawn) [Example 88, 1-(4-fluoro-1-bicyclo[2.2.2]octanyl)-3-[[2-(2-fluoropropoxy)pyridin-4-yl]methyl]urea] | 43% | 440 nM

Results, then the compound that gave them:

Emax | EC50 | Structure (SMILES)
58% | 260 nM | CC(F)COc1cc(CNC(=O)N[C@H]2C[C@H](C(F)(F)F)C2)ccn1 (stereo partly drawn) [Example 183, 1-[[2-(2-fluoropropoxy)pyridin-4-yl]methyl]-3-[(1r,3r)-3-(trifluoromethyl)cyclobutyl]urea]
44% | 910 nM | O=C(NCc1ccnc(OC(F)F)c1)Nc1ccc(F)c(F)c1F [Example 272, 1-[[2-(difluoromethoxy)pyridin-4-yl]methyl]-3-(2,3,4-trifluorophenyl)urea]
40% | 980 nM | O=C(NCc1ccnc(OC(F)F)c1)NCC(O)C12CC(F)(C1)C2 (stereo not drawn) [Example 289, 1-[[2-(difluoromethoxy)pyridin-4-yl]methyl]-3-[2-(3-fluoro-1-bicyclo[1.1.1]pentanyl)-2-hydroxyethyl]urea]
78% | 90 nM | O=C(NCc1cc(OC(F)F)ncn1)N[C@H]1C[C@H](C(F)(F)F)C1 [Example 282, 1-[[6-(difluoromethoxy)pyrimidin-4-yl]methyl]-3-[(1r,3r)-3-(trifluoromethyl)cyclobutyl]urea]
59% | 550 nM | O=C(NCc1ccnc(CC(F)(F)F)c1)Nc1cccc(Cl)c1 [Example 275, 1-(3-chlorophenyl)-3-[[2-(2,2,2-trifluoroethyl)pyridin-4-yl]methyl]urea]
49% | 410 nM | O=C(NCc1ccnc(OC(F)F)c1)NCC1(F)CCCC1 [Example 227, 1-[[2-(difluoromethoxy)pyridin-4-yl]methyl]-3-[(1-fluorocyclopentyl)methyl]urea]
43% | 240 nM | O=C(NCc1ccnc(OC(F)F)c1)N[C@@H]1CCCC(F)(F)C1 [Example 149, 1-[(1R)-3,3-difluorocyclohexyl]-3-[[2-(difluoromethoxy)pyridin-4-yl]methyl]urea]
48% | 20 nM | O=C(NCc1ccnc(OCC(F)(F)F)c1)N[C@H]1C[C@H](C(F)(F)F)C1 [Example 179, 1-[[2-(2,2,2-trifluoroethoxy)pyridin-4-yl]methyl]-3-[(1r,3r)-3-(trifluoromethyl)cyclobutyl]urea]
